Calls of active or inactive are those of the source.
Assays:
Type in all cases: functional
[1] = molecular target: Testis-specific serine/threonine-protein kinase 2 (Homo sapiens, UniProt Q96PF2);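 also: part of the Navigating the Kinome panel, target entry STK22B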
[2] = molecular target: Vascular endothelial growth factor receptor 3 (Homo sapiens, UniProt P35916);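 also: value from a kinome-wide profiling panel, with FLT4 as the panel member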
[3] = molecular target: 3-phosphoinositide-dependent protein kinase 1 (Homo sapiens, UniProt O15530);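 also: value comes from the Navigating the Kinome panel, PDPK1 member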
[4] = molecular target: Mast/stem cell growth factor receptor Kit (Homo sapiens, UniProt P10721);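 also: KIT entry within a kinase panel assay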
[5] = molecular target: Dual specificity tyrosine-phosphorylation-regulated kinase 3 (Homo sapiens, UniProt O43781);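 also: measured as one member of a broad kinase panel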
[6] = molecular target: Mitogen-activated protein kinase kinase kinase kinase 5 (Homo sapiens, UniProt Q9Y4K4);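 also: measured as one member of a kinome-spanning kinase panel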
[7] = molecular target: Cell division cycle 7-related protein kinase (Homo sapiens, UniProt O00311);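 also: value obtained from a kinome-wide kinase panel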
[8] = molecular target: MAP kinase-activated protein kinase 2 (Homo sapiens, UniProt P49137);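 also: measured as one member of a kinome-wide kinase panel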
[9] = molecular target: Mitogen-activated protein kinase 1 (Homo sapiens, UniProt P28482)
[10] = molecular target: cGMP-dependent protein kinase 1 (Homo sapiens, UniProt Q13976);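 also: value from a kinome panel screen with PRKG1 as the panel member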
[11] = molecular target: Casein kinase I isoform alpha (Homo sapiens, UniProt P48729)
[12] = molecular target: Non-receptor tyrosine-protein kinase TYK2 (Homo sapiens, UniProt P29597)
[13] = molecular target: Proto-oncogene tyrosine-protein kinase ROS (Homo sapiens, UniProt P08922);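 also: ROS1 tested as one member of a kinome-wide kinase panel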
Focal adhesion kinase 1 = Focal adhesion kinase 1 (Homo sapiens, UniProt Q05397);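 also: measured as one member of a kinome panel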
[14] = molecular target: RAC-gamma serine/threonine-protein kinase (Homo sapiens, UniProt Q9Y243)
Misshapen-like kinase 1 = Misshapen-like kinase 1 (Homo sapiens, UniProt Q8N4C8);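 also: kinome panel screen with MINK as the panel member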
[15] = molecular target: MAP/microtubule affinity-regulating kinase 3 (Homo sapiens, UniProt P27448);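 also: MARK3 affinity measured as one member of a kinome panel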
[16] = molecular target: Dual specificity mitogen-activated protein kinase kinase 1 (Homo sapiens, UniProt Q02750); assay: Navigating the Kinome. Panel member name: MAP2K1
[17] = molecular target: Rho-associated protein kinase 1 (Homo sapiens, UniProt Q13464);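 also: measured within a broad kinome-wide panel profiling many kinases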
Activated CDC42 kinase 1 = Activated CDC42 kinase 1 (Homo sapiens, UniProt Q07912); assay: Navigating the Kinome. Panel member name: ACK1
[18] = molecular target: cAMP-dependent protein kinase catalytic subunit PRKX (Homo sapiens, UniProt P51817)
LIM domain kinase 1 = LIM domain kinase 1 (Homo sapiens, UniProt P53667); assay: Navigating the Kinome. Panel member name: LIMK1
Activin receptor type-1 = Activin receptor type-1 (Homo sapiens, UniProt Q04771); assay: Navigating the Kinome. Panel member name: ACVR1
[19] = molecular target: Calcium/calmodulin-dependent protein kinase type II subunit alpha (Homo sapiens, UniProt Q9UQM7); assay: Navigating the Kinome. Panel member name: CAMK2A
[20] = molecular target: T1, Apoptotic protease-activating factor 1 (Homo sapiens, UniProt O14727)
T1 sequence (O14727 whole entry): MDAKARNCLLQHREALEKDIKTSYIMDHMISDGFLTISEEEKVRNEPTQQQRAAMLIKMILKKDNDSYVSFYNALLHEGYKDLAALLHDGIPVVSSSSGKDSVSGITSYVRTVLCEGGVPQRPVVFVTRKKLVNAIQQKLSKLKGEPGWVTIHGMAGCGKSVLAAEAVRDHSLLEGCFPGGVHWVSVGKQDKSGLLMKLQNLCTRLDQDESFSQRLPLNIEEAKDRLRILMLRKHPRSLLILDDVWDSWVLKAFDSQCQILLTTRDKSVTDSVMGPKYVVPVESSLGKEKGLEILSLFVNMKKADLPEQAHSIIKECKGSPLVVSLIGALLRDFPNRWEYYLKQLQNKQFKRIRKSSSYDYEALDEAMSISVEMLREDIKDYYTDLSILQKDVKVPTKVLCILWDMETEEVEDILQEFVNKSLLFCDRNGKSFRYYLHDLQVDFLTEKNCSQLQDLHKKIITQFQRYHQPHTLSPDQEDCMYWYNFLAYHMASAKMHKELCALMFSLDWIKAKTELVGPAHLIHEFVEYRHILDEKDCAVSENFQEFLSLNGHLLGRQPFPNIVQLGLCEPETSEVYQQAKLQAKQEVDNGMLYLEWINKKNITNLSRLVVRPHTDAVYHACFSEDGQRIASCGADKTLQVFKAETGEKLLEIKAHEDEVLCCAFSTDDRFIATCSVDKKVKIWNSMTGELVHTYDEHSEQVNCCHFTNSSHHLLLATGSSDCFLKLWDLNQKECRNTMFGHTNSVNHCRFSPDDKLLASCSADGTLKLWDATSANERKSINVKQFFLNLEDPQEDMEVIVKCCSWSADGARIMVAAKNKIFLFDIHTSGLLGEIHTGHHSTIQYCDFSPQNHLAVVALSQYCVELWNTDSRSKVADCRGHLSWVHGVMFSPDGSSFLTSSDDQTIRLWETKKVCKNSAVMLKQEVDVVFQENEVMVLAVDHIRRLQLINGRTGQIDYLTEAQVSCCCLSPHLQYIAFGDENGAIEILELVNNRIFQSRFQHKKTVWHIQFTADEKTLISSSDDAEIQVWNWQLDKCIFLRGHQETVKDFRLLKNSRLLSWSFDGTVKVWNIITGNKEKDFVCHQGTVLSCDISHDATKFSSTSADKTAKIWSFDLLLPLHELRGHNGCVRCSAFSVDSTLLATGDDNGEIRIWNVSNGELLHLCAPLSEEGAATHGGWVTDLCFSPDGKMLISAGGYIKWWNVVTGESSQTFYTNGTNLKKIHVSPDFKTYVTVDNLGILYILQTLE

Chain of Focal adhesion kinase 1 (Q05397 whole entry): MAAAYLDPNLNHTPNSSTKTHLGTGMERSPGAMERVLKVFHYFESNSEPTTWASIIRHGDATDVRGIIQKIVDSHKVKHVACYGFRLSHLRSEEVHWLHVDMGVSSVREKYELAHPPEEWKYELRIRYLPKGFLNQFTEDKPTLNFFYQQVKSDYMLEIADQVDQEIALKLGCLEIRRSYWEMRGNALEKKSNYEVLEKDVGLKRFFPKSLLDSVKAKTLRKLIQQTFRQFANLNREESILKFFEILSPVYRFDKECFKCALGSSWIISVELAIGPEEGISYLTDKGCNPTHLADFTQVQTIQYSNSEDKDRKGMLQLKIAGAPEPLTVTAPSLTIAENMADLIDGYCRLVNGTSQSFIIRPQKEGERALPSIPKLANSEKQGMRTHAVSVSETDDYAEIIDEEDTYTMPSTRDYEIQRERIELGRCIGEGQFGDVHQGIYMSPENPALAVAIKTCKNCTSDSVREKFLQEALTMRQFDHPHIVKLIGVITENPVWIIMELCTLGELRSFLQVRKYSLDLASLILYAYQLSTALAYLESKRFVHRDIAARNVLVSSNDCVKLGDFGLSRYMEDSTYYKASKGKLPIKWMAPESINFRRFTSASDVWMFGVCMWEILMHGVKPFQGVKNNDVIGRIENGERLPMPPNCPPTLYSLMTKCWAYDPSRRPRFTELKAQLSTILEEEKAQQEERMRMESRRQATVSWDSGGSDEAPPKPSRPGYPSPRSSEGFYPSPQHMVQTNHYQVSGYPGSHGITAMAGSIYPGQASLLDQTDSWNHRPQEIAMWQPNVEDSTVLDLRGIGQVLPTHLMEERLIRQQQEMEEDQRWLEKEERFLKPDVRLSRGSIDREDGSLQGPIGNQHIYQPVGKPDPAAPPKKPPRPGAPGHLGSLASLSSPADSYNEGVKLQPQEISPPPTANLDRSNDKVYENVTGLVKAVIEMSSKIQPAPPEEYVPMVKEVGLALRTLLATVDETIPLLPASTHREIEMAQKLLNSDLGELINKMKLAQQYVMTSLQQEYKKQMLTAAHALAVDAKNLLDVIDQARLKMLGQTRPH
Chain of Proto-oncogene tyrosine-protein kinase ROS (P08922 whole entry): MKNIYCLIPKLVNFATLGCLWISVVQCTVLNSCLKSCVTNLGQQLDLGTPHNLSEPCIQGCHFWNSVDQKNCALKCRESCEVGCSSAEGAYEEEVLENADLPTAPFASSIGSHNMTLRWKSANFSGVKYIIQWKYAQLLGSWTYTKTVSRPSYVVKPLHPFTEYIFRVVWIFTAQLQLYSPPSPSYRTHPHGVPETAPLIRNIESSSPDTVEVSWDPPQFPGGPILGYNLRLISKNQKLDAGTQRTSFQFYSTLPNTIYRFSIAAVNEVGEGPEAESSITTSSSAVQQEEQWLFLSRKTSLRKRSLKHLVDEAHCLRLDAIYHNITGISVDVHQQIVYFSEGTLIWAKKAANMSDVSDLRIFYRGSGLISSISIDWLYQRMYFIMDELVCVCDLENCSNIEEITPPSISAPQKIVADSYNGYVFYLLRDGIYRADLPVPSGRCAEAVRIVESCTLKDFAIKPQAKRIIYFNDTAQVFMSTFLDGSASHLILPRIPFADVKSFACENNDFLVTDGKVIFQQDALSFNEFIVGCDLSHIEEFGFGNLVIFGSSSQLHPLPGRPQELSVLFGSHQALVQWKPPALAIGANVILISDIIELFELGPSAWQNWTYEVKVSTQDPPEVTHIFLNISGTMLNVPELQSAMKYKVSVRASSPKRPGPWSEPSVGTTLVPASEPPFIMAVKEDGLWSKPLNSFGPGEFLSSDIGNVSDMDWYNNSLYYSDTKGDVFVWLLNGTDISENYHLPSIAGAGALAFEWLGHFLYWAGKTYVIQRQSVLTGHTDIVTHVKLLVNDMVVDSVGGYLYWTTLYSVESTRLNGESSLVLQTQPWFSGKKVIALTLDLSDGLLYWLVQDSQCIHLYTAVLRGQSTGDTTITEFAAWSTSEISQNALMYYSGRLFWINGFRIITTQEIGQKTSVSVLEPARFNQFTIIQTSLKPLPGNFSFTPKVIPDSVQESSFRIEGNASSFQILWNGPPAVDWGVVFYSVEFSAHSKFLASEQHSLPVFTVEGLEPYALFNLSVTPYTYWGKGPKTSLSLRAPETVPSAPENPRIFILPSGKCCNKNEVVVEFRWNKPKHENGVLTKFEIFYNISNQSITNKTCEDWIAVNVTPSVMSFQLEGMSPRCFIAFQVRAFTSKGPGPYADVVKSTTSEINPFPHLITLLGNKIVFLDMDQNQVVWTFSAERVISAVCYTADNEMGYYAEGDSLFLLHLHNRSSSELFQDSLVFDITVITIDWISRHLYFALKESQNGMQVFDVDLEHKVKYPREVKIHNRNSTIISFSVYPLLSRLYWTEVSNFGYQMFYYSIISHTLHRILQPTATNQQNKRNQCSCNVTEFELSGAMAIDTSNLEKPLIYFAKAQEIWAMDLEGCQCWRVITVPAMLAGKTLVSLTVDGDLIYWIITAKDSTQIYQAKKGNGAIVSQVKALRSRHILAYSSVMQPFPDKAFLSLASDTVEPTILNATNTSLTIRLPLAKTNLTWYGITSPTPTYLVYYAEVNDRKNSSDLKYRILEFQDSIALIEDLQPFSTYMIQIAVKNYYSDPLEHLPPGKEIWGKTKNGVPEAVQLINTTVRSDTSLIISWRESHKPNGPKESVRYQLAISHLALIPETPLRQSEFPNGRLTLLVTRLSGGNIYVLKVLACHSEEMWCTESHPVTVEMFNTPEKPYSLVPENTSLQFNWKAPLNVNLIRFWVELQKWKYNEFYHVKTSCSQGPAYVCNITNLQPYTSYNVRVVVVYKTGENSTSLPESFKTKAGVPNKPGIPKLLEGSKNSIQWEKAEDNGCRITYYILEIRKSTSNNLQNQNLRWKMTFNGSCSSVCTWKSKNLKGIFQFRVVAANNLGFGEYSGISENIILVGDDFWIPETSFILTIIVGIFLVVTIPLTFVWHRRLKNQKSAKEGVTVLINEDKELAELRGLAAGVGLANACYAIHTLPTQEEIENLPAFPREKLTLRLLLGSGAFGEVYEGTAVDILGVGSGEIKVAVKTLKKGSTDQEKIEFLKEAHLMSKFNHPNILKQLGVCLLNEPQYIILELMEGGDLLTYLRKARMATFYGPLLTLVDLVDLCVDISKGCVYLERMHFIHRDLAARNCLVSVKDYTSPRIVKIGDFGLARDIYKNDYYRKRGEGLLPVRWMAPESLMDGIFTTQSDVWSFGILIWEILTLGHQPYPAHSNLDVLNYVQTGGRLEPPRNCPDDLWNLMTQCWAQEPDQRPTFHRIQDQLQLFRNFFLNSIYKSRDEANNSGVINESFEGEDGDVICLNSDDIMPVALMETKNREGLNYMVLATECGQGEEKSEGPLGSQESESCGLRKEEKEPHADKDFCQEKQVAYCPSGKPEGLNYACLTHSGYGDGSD
Chain of Calcium/calmodulin-dependent protein kinase type II subunit alpha (Q9UQM7 whole entry): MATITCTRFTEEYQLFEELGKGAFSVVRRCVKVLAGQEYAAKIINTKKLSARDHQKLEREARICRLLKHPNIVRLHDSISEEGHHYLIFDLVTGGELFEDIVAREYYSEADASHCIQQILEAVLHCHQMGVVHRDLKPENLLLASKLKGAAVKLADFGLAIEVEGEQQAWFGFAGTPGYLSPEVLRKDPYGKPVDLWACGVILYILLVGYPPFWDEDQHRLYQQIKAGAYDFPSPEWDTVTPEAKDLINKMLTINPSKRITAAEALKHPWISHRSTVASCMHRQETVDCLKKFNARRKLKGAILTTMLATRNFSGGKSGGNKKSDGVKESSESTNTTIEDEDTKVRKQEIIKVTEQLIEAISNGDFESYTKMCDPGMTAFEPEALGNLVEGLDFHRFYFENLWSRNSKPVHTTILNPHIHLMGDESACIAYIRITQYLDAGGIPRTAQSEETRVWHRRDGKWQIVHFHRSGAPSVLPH
Chain of Dual specificity mitogen-activated protein kinase kinase 1 (Q02750 whole entry): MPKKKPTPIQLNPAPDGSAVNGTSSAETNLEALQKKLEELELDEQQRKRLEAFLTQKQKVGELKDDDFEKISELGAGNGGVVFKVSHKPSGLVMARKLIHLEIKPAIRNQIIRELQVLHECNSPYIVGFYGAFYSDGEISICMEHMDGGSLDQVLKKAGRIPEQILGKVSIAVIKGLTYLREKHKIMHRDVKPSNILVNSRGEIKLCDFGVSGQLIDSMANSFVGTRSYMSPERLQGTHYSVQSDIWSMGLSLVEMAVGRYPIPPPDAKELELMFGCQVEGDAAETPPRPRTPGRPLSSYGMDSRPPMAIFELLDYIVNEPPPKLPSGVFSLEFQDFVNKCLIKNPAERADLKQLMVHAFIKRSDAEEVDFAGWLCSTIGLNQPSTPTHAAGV
Chain of MAP kinase-activated protein kinase 2 (P49137 whole entry): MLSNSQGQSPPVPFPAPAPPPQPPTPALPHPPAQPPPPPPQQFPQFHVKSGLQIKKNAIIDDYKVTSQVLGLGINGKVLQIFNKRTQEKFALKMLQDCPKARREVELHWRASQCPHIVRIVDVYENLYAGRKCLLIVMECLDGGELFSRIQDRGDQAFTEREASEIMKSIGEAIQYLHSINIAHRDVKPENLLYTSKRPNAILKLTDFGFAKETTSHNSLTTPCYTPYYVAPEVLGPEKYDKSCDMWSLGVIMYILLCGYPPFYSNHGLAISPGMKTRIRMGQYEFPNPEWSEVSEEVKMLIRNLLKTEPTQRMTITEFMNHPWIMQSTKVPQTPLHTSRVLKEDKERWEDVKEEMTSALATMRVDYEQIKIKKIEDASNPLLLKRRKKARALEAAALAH
Chain of Casein kinase I isoform alpha (P48729 whole entry, canonical isoform): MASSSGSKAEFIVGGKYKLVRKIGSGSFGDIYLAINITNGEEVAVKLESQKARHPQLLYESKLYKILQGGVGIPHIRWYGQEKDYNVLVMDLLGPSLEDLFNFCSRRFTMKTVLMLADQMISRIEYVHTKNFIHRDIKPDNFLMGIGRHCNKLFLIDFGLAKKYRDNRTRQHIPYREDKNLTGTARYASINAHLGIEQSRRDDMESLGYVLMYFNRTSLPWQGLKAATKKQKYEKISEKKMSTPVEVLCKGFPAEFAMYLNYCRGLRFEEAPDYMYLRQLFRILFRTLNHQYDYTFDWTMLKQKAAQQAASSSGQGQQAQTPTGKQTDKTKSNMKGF

Cc1n[nH]c2ccc(-c3cncc(OCC(N)Cc4ccc(Cl)c(Cl)c4)c3)cc12 (stereo not given)
inactive: Ki [1] > 1.58 µM | Ki [4] > 1.26 µM | Ki [12] > 2 µM | Ki (Focal adhesion kinase 1) > 1.58 µM
active: Ki [2] 1.58 µM | Ki [3] 2 µM | Ki [5] 10 nM | Ki [6] 158 nM | Ki [7] 12.6 nM | Ki [8] 3.98 µM | Ki [9] 39.8 nM | Ki [10] 7.94 nM | Ki [11] 316 nM | Ki [13] 631 nM | Ki [14] 3.98 nM | Ki (Misshapen-like kinase 1) 20 nM | Ki [15] 316 nM

[2H]C([2H])([2H])Oc1cccc(C(C)NC(=O)c2sc(-c3ccncc3)nc2C)c1 (stereo not given)
inactive: Ki [16] > 3.16 µM | Ki (Activated CDC42 kinase 1) > 3.98 µM | Ki [18] > 3.16 µM | Ki (LIM domain kinase 1) > 3.16 µM | Ki (Activin receptor type-1) > 3.98 µM | Ki [19] > 3.98 µM
active: Ki [17] 12.6 nM

COc1ccc(-n2c(NC(=O)c3ccco3)c(C#N)c3nc4ccccc4nc32)cc1
active: IC50 [20] 12.6 µM

Reference: ChEMBL document CHEMBL1201862, “PubChem BioAssay data set” (2004)
